Reference: US11566057B2, “Long-acting co-agonists of the glucagon and GLP-1 receptors” (Merck Sharp & Dohme Corp., priority 2017, dated 2023)
Read-outs that look alike come from different tables or passages of the source. Numbered stars: 1 amine (or outer) side, 2 acyl side, 3 side chain; on linkers, the order of the positions; unused ones are H or OH. Square brackets hold non-standard residues; d marks the D form. Side chains are listed from the residue outwards. Peptide text beside a SMILES is read from it. * marks the point of attachment. C20 diacid = O=C(O)CCCCCCCCCCCCCCCCCCC(=O)*; Phe(4-CH2NH2) = NCc1ccc(C[C@H](N)C(=O)O)cc1; C18 diacid = O=C(O)CCCCCCCCCCCCCCCCC(=O)*; αMeW = C[C@](N)(Cc1c[nH]c2ccccc12)C(=O)O; γGlu = O=C(O)[C@H](CCC(=O)[*:2])N[*:1]; Met(O2) = CS(=O)(=O)CC[C@H](N)C(=O)O; AEEA = NCCOCCOCC(=O)O; Aib = CC(C)(N)C(=O)O

How the values were obtained:
[1] = molecular target: T1, human GLP1R (Homo sapiens, UniProt P43220); assay: cAMP activity assay at the GLP-1 receptor (GLP1R); type: cell-based
T1 construct: expressed in transfected cells; growth medium holds Blasticidin and Hygromycin
T1 sequence (P43220 24-463): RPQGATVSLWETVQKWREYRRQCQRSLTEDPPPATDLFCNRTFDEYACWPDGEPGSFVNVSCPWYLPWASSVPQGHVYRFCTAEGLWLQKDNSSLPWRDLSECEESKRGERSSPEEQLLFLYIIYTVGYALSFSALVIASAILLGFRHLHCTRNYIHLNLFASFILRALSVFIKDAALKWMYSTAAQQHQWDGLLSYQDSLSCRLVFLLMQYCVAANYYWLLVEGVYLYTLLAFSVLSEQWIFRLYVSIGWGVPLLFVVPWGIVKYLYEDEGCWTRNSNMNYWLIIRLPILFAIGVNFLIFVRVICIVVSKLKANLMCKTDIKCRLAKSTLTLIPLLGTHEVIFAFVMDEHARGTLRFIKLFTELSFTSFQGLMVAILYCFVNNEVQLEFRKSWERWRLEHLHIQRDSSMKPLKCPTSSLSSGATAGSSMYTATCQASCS
Procedure, shortened: (§1)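 Peptides serially diluted from DMSO (10 points) and added to frozen-stock cells bearing human GLP1R (10,000 cells/well) or GCGR (30,000 cells/well), 1 h at RT, dark. EC50 by four-parameter logistic fit of HitHunter cAMPXS luminescence, read following overnight RT incubation.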

[2] = molecular target: T2, human GCGR (Homo sapiens, UniProt P47871); assay: cAMP activity assay at the Glucagon receptor (GCGR); type: cell-based; conditions: for hGCGR/hGLP1R (hTone): ratio of GCGR EC50 to GLP1R EC50
T2 construct: expressed in transfected cells; growth medium holds Blasticidin and Hygromycin
T2 sequence (P47871 26-477): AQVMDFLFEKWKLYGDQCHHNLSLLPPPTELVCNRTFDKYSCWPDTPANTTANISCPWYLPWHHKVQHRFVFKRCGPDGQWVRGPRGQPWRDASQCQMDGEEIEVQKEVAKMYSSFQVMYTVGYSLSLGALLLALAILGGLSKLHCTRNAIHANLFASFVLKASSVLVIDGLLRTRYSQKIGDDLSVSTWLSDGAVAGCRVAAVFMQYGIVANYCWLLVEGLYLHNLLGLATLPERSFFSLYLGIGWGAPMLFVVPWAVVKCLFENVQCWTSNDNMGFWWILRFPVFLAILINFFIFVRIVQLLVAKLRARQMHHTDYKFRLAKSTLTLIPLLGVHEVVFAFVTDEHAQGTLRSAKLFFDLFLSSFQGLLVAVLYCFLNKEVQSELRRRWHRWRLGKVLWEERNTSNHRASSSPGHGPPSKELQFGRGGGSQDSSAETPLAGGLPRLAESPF
Procedure, shortened: as §1

[3] = summary statement: EC50 at each of the glucagon and GLP-1 receptors, read-out: EC50 at the GLP-1 receptor
[4] = summary statement: EC50 at each of the glucagon and GLP-1 receptors, read-out: EC50 at the glucagon receptor
[5] = cells expressing human GLP1R, cAMP production, buffer with or without 20% human serum (not stated which), read-out: GLP1R EC50 human
[6] = cells expressing human GCGR, cAMP production, buffer with or without 20% human serum (not stated which), read-out: GCGR EC50 human

Row | EC50 [1, 3] | EC50 [2, 4] | EC50 [1, 5] | EC50 [2, 6] | hGCGR/hGLP1R (hTone) [2] | Structure (SMILES)
1 | < 5 nM | < 5 nM |  |  |  | CC(C)C[C@H](NC(=O)[C@H](Cc1ccc(O)cc1)NC(=O)[C@H](CCCCN)NC(=O)[C@H](CO)NC(=O)[C@H](Cc1ccc(O)cc1)NC(=O)[C@H](CC(=O)O)NC(=O)[C@H](CO)NC(=O)[C@@H](NC(=O)[C@H](Cc1ccccc1)NC(=O)[C@@H](NC(=O)CNC(=O)[C@H](CCC(N)=O)NC(=O)C(C)(C)NC(=O)[C@@H](N)Cc1c[nH]cn1)[C@@H](C)O)[C@@H](C)O)C(=O)N[C@@H](CC(=O)O)C(=O)N[C@@H](C)C(=O)N[C@@H](CCCNC(=N)N)C(=O)N[C@@H](C)C(=O)N[C@@H](C)C(=O)N[C@@H](CCC(N)=O)C(=O)N[C@@H](CC(=O)O)C(=O)N[C@@H](Cc1ccccc1)C(=O)N[C@H](C(=O)N[C@@H](CCC(N)=O)C(=O)N[C@@H](Cc1c[nH]c2ccccc12)C(=O)N[C@@H](CC(C)C)C(=O)N[C@@H](CCS(C)(=O)=O)C(=O)N[C@@H](Cc1ccc(CNC(=O)COCCOCCNC(=O)COCCOCCNC(=O)CC[C@H](NC(=O)CCCCCCCCCCCCCCCCCCC(=O)O)C(=O)O)cc1)C(=O)N[C@H](C(N)=O)[C@@H](C)O)C(C)C [TP605] (H-H[Aib]QGTFTSDYSKYLDARAAQDFVQWL[Met(O2)][Phe(4-CH2NH2)]([AEEA-AEEA-γGlu-C20 diacid])T-NH2)
2 |  |  | > 19.8 nM | > 19.8 nM |  | CC(C)C[C@H](NC(=O)[C@H](CCCCN)NC(=O)[C@H](CCCCN)NC(=O)[C@H](CO)NC(=O)[C@H](Cc1ccc(O)cc1)NC(=O)[C@H](CCC(=O)O)NC(=O)[C@H](CO)NC(=O)[C@@H](NC(=O)[C@H](Cc1ccccc1)NC(=O)[C@@H](NC(=O)CNC(=O)[C@H](CCC(N)=O)NC(=O)C(C)(C)NC(=O)[C@@H](N)Cc1c[nH]cn1)[C@@H](C)O)[C@@H](C)O)C(=O)N[C@@H](CC(=O)O)C(=O)N[C@@H](C)C(=O)N[C@@H](CCCNC(=N)N)C(=O)N[C@@H](C)C(=O)N[C@@H](C)C(=O)N[C@@H](CCC(N)=O)C(=O)N[C@@H](CC(=O)O)C(=O)N[C@@H](Cc1ccccc1)C(=O)N[C@H](C(=O)N[C@@H](CCCCNC(=O)COCCOCCNC(=O)COCCOCCNC(=O)CC[C@H](NC(=O)CCCCCCCCCCCCCCCCC(=O)O)C(=O)O)C(=O)N[C@@H](Cc1c[nH]c2ccccc12)C(=O)N[C@@H](CC(C)C)C(=O)N[C@@H](CCS(C)(=O)=O)C(=O)N[C@@H](CC(=O)O)C(=O)N[C@H](C(N)=O)[C@@H](C)O)C(C)C [TP699] (H-H[Aib]QGTFTSEYSKKLDARAAQDFVK([AEEA-AEEA-γGlu-C18 diacid])WL[Met(O2)]DT-NH2)
3 | < 5 nM | < 5 nM |  |  | 4.6 | CC(C)C[C@H](NC(=O)[C@H](Cc1ccc(O)cc1)NC(=O)[C@H](CCCCN)NC(=O)[C@H](CO)NC(=O)[C@H](Cc1ccc(O)cc1)NC(=O)[C@H](CC(=O)O)NC(=O)[C@H](CO)NC(=O)[C@@H](NC(=O)[C@H](Cc1ccccc1)NC(=O)[C@@H](NC(=O)CNC(=O)[C@H](CCC(N)=O)NC(=O)C(C)(C)NC(=O)[C@@H](N)Cc1c[nH]cn1)[C@@H](C)O)[C@@H](C)O)C(=O)N[C@@H](CC(=O)O)C(=O)N[C@@H](C)C(=O)N[C@@H](CCCNC(=N)N)C(=O)N[C@@H](C)C(=O)N[C@@H](C)C(=O)N[C@@H](CCC(N)=O)C(=O)N[C@@H](CC(=O)O)C(=O)N[C@@H](Cc1ccccc1)C(=O)N[C@H](C(=O)N[C@@H](Cc1ccc(CNC(=O)COCCOCCNC(=O)COCCOCCNC(=O)CC[C@H](NC(=O)CCCCCCCCCCCCCCCCCCC(=O)O)C(=O)O)cc1)C(=O)N[C@@H](Cc1c[nH]c2ccccc12)C(=O)N[C@@H](CC(C)C)C(=O)N[C@@H](CC(C)C)C(=O)N[C@@H](CC(=O)O)C(=O)N[C@H](C(N)=O)[C@@H](C)O)C(C)C [TP584] (H-H[Aib]QGTFTSDYSKYLDARAAQDFV[Phe(4-CH2NH2)]([AEEA-AEEA-γGlu-C20 diacid])WLLDT-NH2)
4 | < 5 nM | < 5 nM |  |  | 3.4 | CC(C)C[C@H](NC(=O)[C@H](Cc1ccc(O)cc1)NC(=O)[C@H](CCCCN)NC(=O)[C@H](CO)NC(=O)[C@H](Cc1ccc(CNC(=O)COCCOCCNC(=O)COCCOCCNC(=O)CC[C@H](NC(=O)CCCCCCCCCCCCCCCCC(=O)O)C(=O)O)cc1)NC(=O)[C@H](CC(=O)O)NC(=O)[C@H](CO)NC(=O)[C@@H](NC(=O)[C@H](Cc1ccccc1)NC(=O)[C@@H](NC(=O)CNC(=O)[C@H](CCC(N)=O)NC(=O)C(C)(C)NC(=O)[C@@H](N)Cc1c[nH]cn1)[C@@H](C)O)[C@@H](C)O)C(=O)N[C@@H](CC(=O)O)C(=O)N[C@@H](C)C(=O)N[C@@H](CCCNC(=N)N)C(=O)N[C@@H](C)C(=O)N[C@@H](C)C(=O)N[C@@H](CCC(N)=O)C(=O)N[C@@H](CC(=O)O)C(=O)N[C@@H](Cc1ccccc1)C(=O)N[C@H](C(=O)N[C@@H](CCC(N)=O)C(=O)N[C@@](C)(Cc1c[nH]c2ccccc12)C(=O)N[C@@H](CC(C)C)C(=O)N[C@@H](CCS(C)(=O)=O)C(=O)N[C@@H](CC(=O)O)C(=O)N[C@H](C(N)=O)[C@@H](C)O)C(C)C [TP625] (H-H[Aib]QGTFTSD[Phe(4-CH2NH2)]([AEEA-AEEA-γGlu-C18 diacid])SKYLDARAAQDFVQ[αMeW]L[Met(O2)]DT-NH2; N-terminus assumed)
5 | < 5 nM | < 5 nM | 0.19 nM |  | 0.7 | CC(C)C[C@H](NC(=O)[C@H](Cc1ccc(O)cc1)NC(=O)[C@H](CCCCN)NC(=O)[C@H](CO)NC(=O)[C@H](Cc1ccc(O)cc1)NC(=O)[C@H](CC(=O)O)NC(=O)[C@H](CO)NC(=O)[C@@H](NC(=O)[C@H](Cc1ccccc1)NC(=O)[C@@H](NC(=O)CNC(=O)[C@H](CCC(N)=O)NC(=O)C(C)(C)NC(=O)[C@@H](N)Cc1c[nH]cn1)[C@@H](C)O)[C@@H](C)O)C(=O)N[C@@H](CC(=O)O)C(=O)N[C@@H](C)C(=O)N[C@@H](CCCNC(=N)N)C(=O)N[C@@H](C)C(=O)N[C@@H](C)C(=O)N[C@@H](CCC(N)=O)C(=O)N[C@@H](Cc1ccc(CNC(=O)COCCOCCNC(=O)CC[C@H](NC(=O)CCCCCCCCCCCCCCCCC(=O)O)C(=O)O)cc1)C(=O)N[C@@H](Cc1ccccc1)C(=O)N[C@H](C(=O)N[C@@H](CCC(N)=O)C(=O)N[C@@H](Cc1c[nH]c2ccccc12)C(=O)N[C@@H](CC(C)C)C(=O)N[C@@H](CC(C)C)C(=O)N[C@@H](CC(=O)O)C(=O)N[C@H](C(N)=O)[C@@H](C)O)C(C)C [TP633] (H-H[Aib]QGTFTSDYSKYLDARAAQ[Phe(4-CH2NH2)]([AEEA-γGlu-C18 diacid])FVQWLLDT-NH2; N-terminus assumed)
6 | < 5 nM | < 5 nM | 0.41 nM |  | 3.6 | CC(C)C[C@H](NC(=O)[C@H](Cc1ccc(O)cc1)NC(=O)[C@H](CCCCN)NC(=O)[C@H](CO)NC(=O)[C@H](Cc1ccc(O)cc1)NC(=O)[C@H](CC(=O)O)NC(=O)[C@H](CO)NC(=O)[C@@H](NC(=O)[C@H](Cc1ccccc1)NC(=O)[C@@H](NC(=O)CNC(=O)[C@H](CCC(N)=O)NC(=O)C(C)(C)NC(=O)[C@@H](N)Cc1c[nH]cn1)[C@@H](C)O)[C@@H](C)O)C(=O)N[C@@H](CC(=O)O)C(=O)N[C@@H](C)C(=O)N[C@@H](CCCNC(=N)N)C(=O)N[C@@H](C)C(=O)N[C@@H](C)C(=O)N[C@@H](CCCCNC(=O)COCCOCCNC(=O)COCCOCCNC(=O)CC[C@H](NC(=O)CCCCCCCCCCCCCCCCC(=O)O)C(=O)O)C(=O)N[C@@H](CC(=O)O)C(=O)N[C@@H](Cc1ccccc1)C(=O)N[C@H](C(=O)N[C@@H](CCC(=O)O)C(=O)N[C@@H](Cc1c[nH]c2ccccc12)C(=O)N[C@@H](CC(C)C)C(=O)N[C@@H](CCS(C)(=O)=O)C(=O)N[C@@H](CCCCN)C(=O)N[C@H](C(N)=O)[C@@H](C)O)C(C)C [TP705] (H-H[Aib]QGTFTSDYSKYLDARAAK([AEEA-AEEA-γGlu-C18 diacid])DFVEWL[Met(O2)]KT-NH2; N-terminus assumed)
7 | < 5 nM | < 5 nM | > 20 nM | 0.35 nM | 0.2 | CC(C)C[C@H](NC(=O)[C@H](Cc1ccc(O)cc1)NC(=O)[C@H](CCCCN)NC(=O)[C@H](CO)NC(=O)[C@H](Cc1ccc(O)cc1)NC(=O)[C@H](CC(=O)O)NC(=O)[C@H](CO)NC(=O)[C@H](CC(C)C)NC(=O)[C@H](Cc1ccccc1)NC(=O)[C@@H](NC(=O)CNC(=O)[C@H](CCC(N)=O)NC(=O)C(C)(C)NC(=O)[C@@H](N)Cc1c[nH]cn1)[C@@H](C)O)C(=O)N[C@@H](CC(=O)O)C(=O)N[C@@H](C)C(=O)N[C@@H](CCCNC(=N)N)C(=O)N[C@@H](C)C(=O)N[C@@H](C)C(=O)N[C@@H](CCCCNC(=O)COCCOCCNC(=O)COCCOCCNC(=O)CC[C@H](NC(=O)CCCCCCCCCCCCCCCCC(=O)O)C(=O)O)C(=O)N[C@@H](CC(=O)O)C(=O)N[C@@H](Cc1ccccc1)C(=O)N[C@H](C(=O)N[C@@H](CCC(N)=O)C(=O)N[C@@H](Cc1c[nH]c2ccccc12)C(=O)N[C@@H](CC(C)C)C(=O)N[C@@H](CCS(C)(=O)=O)C(=O)N[C@@H](CC(=O)O)C(=O)N[C@H](C(N)=O)[C@@H](C)O)C(C)C [TP596] (H-H[Aib]QGTFLSDYSKYLDARAAK([AEEA-AEEA-γGlu-C18 diacid])DFVQWL[Met(O2)]DT-NH2; N-terminus assumed)
